Laboratory results published in patent US6833478B2 (priority 2001, dated 2004).
Structures can show the parent of a compound that is named as a salt.

Test: Volume of water needed to dissolve
Type: physicochemical
Settings: 1 mmole (782 mg)
Text: Evidently, dinitramide ion quenches the fluorescence of protonated quinine.

C=C[C@H]1C[N@@]2CC[C@H]1C[C@H]2[C@H](O)c1ccnc2ccc(OC)cc12 [quinine sulfate]
water required to dissolve: 900 mL
